{"source": "patent US11214540B2", "about": "“Compositions for treating neurodegenerative diseases” (COGNITION THERAPEUTICS, INC., priority 2017, dated 2022)", "assay": "log P", "assay_type": "physicochemical", "excerpt": "The term “log P” refers to the partition coefficient of a compound. The partition coefficient is the ratio of concentrations of un-ionized compound in each of two solution phases, for example, octanol and water. To measure the partition coefficient of ionizable solute compounds, the pH of the aqueous phase is adjusted such that the predominant form of the compound is un-ionized. The logarithm of the ratio of concentrations of the un-ionized solute compound in the solvents is called log P. The log P is a measure of lipophilicity. For example, log Poct/wat=log([solute]octanol/[solute]un-ionized,water).\nCombined Results for particular compounds described herein, with respect to log P, membrane trafficking (uM), sigma-2 receptor affinity, sigma-1 receptor affinity microsomal stability in mouse liver microsomes (MLM) (t1/2, min), t1/2 normalized to CT)10914 and in vitro toxicity potassium channel hERG (IC50, nM) are provided in Table 1: […]", "data": [{"compound": "CC(C)=CC(CC(C)(C)c1ccc(S(C)(=O)=O)cc1)NCC1CCOCC1", "note": "(stereo not shown) [Compound 88]", "values": [{"measurement": "log P", "result": 3.54}]}, {"compound": "CC(C)=CC(CC(C)(C)c1ccc(S(C)(=O)=O)cc1)N1CCC(C(C)C)CC1", "note": "(stereo not shown) [Compound 89]", "values": [{"measurement": "log P", "result": 5.37}]}, {"compound": "COc1ccc(C(C)(C)CC(c2ccccc2)N2CCCCC2)cc1", "note": "(stereo not shown) [Compound 116]", "values": [{"measurement": "log P", "result": 5.71}]}, {"compound": "CC(C)(CC(c1ccccc1)N1CCCCC1)c1ccc(Cl)cc1", "note": "(stereo not shown) [Compound 117]", "values": [{"measurement": "log P", "result": 6.47}]}, {"compound": "COc1ccc(C(C)(C)CC(c2ccccc2)N2CCOCC2)cc1", "note": "(stereo not shown) [Compound 118]", "values": [{"measurement": "log P", "result": 4.64}]}, {"compound": "CC(C)(CC(c1ccccc1)N1CCC(C2CCOCC2)CC1)c1ccc(Cl)cc1", "note": "(stereo not shown) [Compound 119]", "values": [{"measurement": "log P", "result": 6.67}]}, {"compound": "CC(C)(CC(c1ccccc1)N1CCOCC1)c1ccc(Cl)cc1", "note": "(stereo not shown) [Compound 120]", "values": [{"measurement": "log P", "result": 5.4}]}, {"compound": "CC(C)(CC(NCC1CCOCC1)c1ccccc1)c1ccc(Cl)cc1", "note": "(stereo not shown) [Compound 121]", "values": [{"measurement": "log P", "result": 5.66}]}, {"compound": "COc1ccc(C(C)(C)CC(c2ccccc2)N2CCC(C3CCOCC3)CC2)cc1", "note": "(stereo not shown) [Compound 122]", "values": [{"measurement": "log P", "result": 5.91}]}, {"compound": "CC(C)=CC(CC(C)(C)c1ccc(N2CCOCC2)cc1)N1CCC2(CCOCC2)CC1", "note": "(stereo not shown) [Compound 147]", "values": [{"measurement": "log P", "result": 5.16}]}, {"compound": "CC(C)=CC(CC(C)(C)c1ccc(N2CCOCC2)cc1)N1CCC(C)(O)CC1", "note": "(stereo not shown) [Compound 148]", "values": [{"measurement": "log P", "result": 4.14}]}, {"compound": "CC(C)=CC(CC(C)(C)c1ccc(F)cc1)N1CCN(S(C)(=O)=O)CC1", "note": "(stereo not shown) [Compound 154]", "values": [{"measurement": "log P", "result": 3.37}]}, {"compound": "CC(C)=CC(CC(C)(C)c1ccc(C(F)(F)F)cc1)N1CCN(C(=O)c2ccccc2)CC1", "note": "(stereo not shown) [Compound 155]", "values": [{"measurement": "log P", "result": 6.46}]}, {"compound": "CC(C)=CC(CC(C)(C)c1ccc(Cl)cc1)N1CCN(C(=O)c2ccccc2)CC1", "note": "(stereo not shown) [Compound 157]", "values": [{"measurement": "log P", "result": 6.19}]}, {"compound": "CC(C)=CC(CC(C)(C)c1ccc(C(F)(F)F)cc1)N1CCC(CCOC(C)C)CC1", "note": "(stereo not shown) [Compound 164]", "values": [{"measurement": "log P", "result": 7.1}]}, {"compound": "CC(C)=CC(NCC1CCOCC1)C(C)(C)Oc1ccc(Cl)cc1", "note": "(stereo not shown) [Compound 165]", "values": [{"measurement": "log P", "result": 4.6}]}, {"compound": "CC(C)=CC(NCC1CCOCC1)C(C)(C)Oc1ccccc1", "note": "(stereo not shown) [Compound 166]", "values": [{"measurement": "log P", "result": 3.99}]}, {"compound": "COC1CN(C(C=C(C)C)CC(C)(C)c2ccc(Cl)cc2)C1", "note": "(stereo not shown) [Compound 167]", "values": [{"measurement": "log P", "result": 5.1}]}, {"compound": "CC(C)=CC(CC(C)(C)c1ccc(OC(C)(C)C)cc1)N1CCC2(CCOCC2)CC1", "note": "(stereo not shown) [Compound 168]", "values": [{"measurement": "log P", "result": 6.17}]}, {"compound": "CC(C)=CC(CC(C)(C)c1ccc(OC(C)(C)C)cc1)N1CCC(C)(O)CC1", "note": "(stereo not shown) [Compound 169]", "values": [{"measurement": "log P", "result": 5.15}]}, {"compound": "CC(C)=CC(CC(C)(C)c1ccc(OC(C)(C)C)cc1)N1CCC(O)CC1", "note": "(stereo not shown) [Compound 170]", "values": [{"measurement": "log P", "result": 4.87}]}, {"compound": "COCCCC1CCN(C(C=C(C)C)CC(C)(C)c2ccc(OC(C)C)cc2)CC1", "note": "(stereo not shown) [Compound 171]", "values": [{"measurement": "log P", "result": 6.5}]}, {"compound": "COCCNC(C=C(C)C)C(C)(C)Oc1ccccc1", "note": "(stereo not shown) [Compound 172]", "values": [{"measurement": "log P", "result": 3.52}]}, {"compound": "CC(C)=CC(NCC(C)C)C(C)(C)Oc1ccccc1", "note": "(stereo not shown) [Compound 173]", "values": [{"measurement": "log P", "result": 4.81}]}, {"compound": "COCCNC(C=C(C)C)C(C)(C)Oc1ccc(F)cc1", "note": "(stereo not shown) [Compound 174]", "values": [{"measurement": "log P", "result": 3.67}]}, {"compound": "COCCNC(C=C(C)C)C(C)(C)Oc1ccc(Cl)cc1", "note": "(stereo not shown) [Compound 175]", "values": [{"measurement": "log P", "result": 4.13}]}, {"compound": "CC(C)=CC(NCC(C)C)C(C)(C)Oc1ccc(F)cc1", "note": "(stereo not shown) [Compound 176]", "values": [{"measurement": "log P", "result": 4.96}]}, {"compound": "CC(C)=CC(NCC(C)C)C(C)(C)Oc1ccc(Cl)cc1", "note": "(stereo not shown) [Compound 177]", "values": [{"measurement": "log P", "result": 5.42}]}, {"compound": "CC(C)=CC(CC(C)(C)c1ccc(OC(C)C)cc1)N1CCC(O)CC1", "note": "(stereo not shown) [Compound 178]", "values": [{"measurement": "log P", "result": 4.59}]}, {"compound": "COCCCC1CCN(C(C=C(C)C)COc2ccc(F)cc2)CC1", "note": "(stereo not shown) [Compound 190]", "values": [{"measurement": "log P", "result": 4.63}]}, {"compound": "CC(C)(CCN1CCC(C2CCOCC2)CC1)c1ccc(Cl)cc1", "note": "[Compound 193]", "values": [{"measurement": "log P", "result": 4.89}]}]}
